Eleven compounds from PubChem BioAssay (NCI) can be followed below.

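Briefly, cells in 96-well plates were exposed to five compound concentrations for 48 h, and endpoints were estimated by linear interpolation. GI50 is the concentration that inhibits growth by half. TGI marks complete inhibition of growth.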

Some test systems named below: NCI/ADR-RES ovarian; HOP-92 NSCLC; HT29 colon; OVCAR-4 ovarian; SNB-19 CNS; NCI-H226 lung; SK-MEL-2 melanoma; UACC-257 melanoma; 786-0 renal; A498 renal.
What all share (assay): DTP human tumour cell line panel, 48 h

What is called TGI is the concentration giving total growth inhibition. Turning to `CCOc1ccc(/C=C2\NC(=S)N(/C=C3\C(=O)Oc4ccccc4C3=O)C2=O)cc1`, the TGI in the assay with NCI/ADR-RES ovarian amounted to 45.7 µM; with HOP-92 NSCLC, 53.4 µM; in the assay with HT29 colon, 82.1 µM; with OVCAR-4 ovarian, 66.5 µM; in the assay with SNB-19 CNS it was 59.8 µM; with NCI-H226 lung it was 45.7 µM. Moreover, the TGI was 48 µM with SK-MEL-2 melanoma, 75.8 µM in the assay with UACC-257 melanoma and 39.5 µM in the assay on 786-0 renal.
The term GI50 denotes the concentration giving 50% growth inhibition. On to `Nc1nccc2c1ncn2C1OC(CO)C(O)C1O` (stereo unspecified), for which the GI50 in the assay with NCI/ADR-RES ovarian was above 100 µM; with HOP-92 NSCLC, 92.2 µM; in the assay with HT29 colon it was above 100 µM; in the assay on OVCAR-4 ovarian, above 100 µM; in the assay on SNB-19 CNS, above 100 µM; with NCI-H226 lung, above 100 µM. For the same compound, the GI50 in the assay on SK-MEL-2 melanoma, with UACC-257 melanoma and with 786-0 renal was above 100 µM throughout. Further, the TGI in the assay with NCI/ADR-RES ovarian, in the assay on HOP-92 NSCLC, with HT29 colon, with OVCAR-4 ovarian, with SNB-19 CNS and in the assay on NCI-H226 lung was above 100 µM throughout. The TGI in the assay with SK-MEL-2 melanoma, with UACC-257 melanoma and with 786-0 renal was above 100 µM throughout.
`Cc1c(-c2nnc(-c3ccccc3)o2)c(=O)n(-c2ccccc2)n1C`: the TGI with HOP-92 NSCLC, in the assay with HT29 colon, with OVCAR-4 ovarian, with SNB-19 CNS, in the assay on NCI-H226 lung and in the assay with A498 renal was above 100 µM each time. Further, the TGI in the assay with SK-MEL-2 melanoma, in the assay with UACC-257 melanoma and in the assay on 786-0 renal was above 100 µM in each case.
Consider `COC12CCC(C(C(=O)c3ccccc3)=C1C(=O)c1ccccc1)C(O)C2` (stereo unspecified), for which the TGI with HOP-92 NSCLC, in the assay on HT29 colon, with OVCAR-4 ovarian, in the assay on SNB-19 CNS, in the assay on NCI-H226 lung and in the assay on A498 renal was above 100 µM in each case. The TGI in the assay on SK-MEL-2 melanoma, in the assay with UACC-257 melanoma and in the assay on 786-0 renal was above 100 µM each time.
In the case of `CS/C(c1ccccc1)=[N+](\[O-])Cc1ccccc1`, the TGI in the assay with HOP-92 NSCLC, with HT29 colon, in the assay on OVCAR-4 ovarian, in the assay on SNB-19 CNS, with NCI-H226 lung and in the assay with A498 renal was above 100 µM throughout. In addition, the TGI with SK-MEL-2 melanoma, in the assay on UACC-257 melanoma and in the assay with 786-0 renal was above 100 µM throughout.
As for `O=C(N/C(=C\c1ccc(/C=C(\NC(=O)c2ccccc2)c2nc3ccccc3s2)cc1)c1nc2ccccc2s1)c1ccccc1`, the TGI in the assay on HOP-92 NSCLC amounted to 25.6 µM; in the assay on HT29 colon, 19.1 µM; with OVCAR-4 ovarian, 19.6 µM; in the assay with SNB-19 CNS, 14.5 µM; in the assay with NCI-H226 lung, 34.3 µM; in the assay with A498 renal it was 32.5 µM. The TGI in the assay with SK-MEL-2 melanoma was determined as 19.2 µM; in the assay on UACC-257 melanoma, 17 µM; in the assay with 786-0 renal, 3.49 µM.
As for `CN(C)CCCCn1ccc2c1C(=O)c1c(c(O)c3ccccc3c1O)C2=O`, the GI50 in the assay with NCI/ADR-RES ovarian is 13.3 µM; in the assay on HT29 colon it was 5.53 µM; in the assay on OVCAR-4 ovarian it was 19.6 µM; in the assay on SNB-19 CNS, 14.6 µM; in the assay with NCI-H226 lung, 6.56 µM; in the assay with UACC-257 melanoma, 15.5 µM. In addition, in the assay on 786-0 renal, the GI50 is 12.2 µM. Besides, the TGI came to 27.5 µM in the assay with NCI/ADR-RES ovarian; 18.4 µM in the assay on HT29 colon; 43.1 µM in the assay on OVCAR-4 ovarian; 30.5 µM with SNB-19 CNS; 21.8 µM in the assay with NCI-H226 lung; 29.5 µM with UACC-257 melanoma. In addition, the TGI with 786-0 renal came to 25.3 µM.
As to `Cc1cc(C)c(S(=O)(=O)N(CCc2cccc(Br)c2)Cc2ccc(-c3cccc(S(C)(=O)=O)c3)cc2)c(C)c1`, the GI50 in the assay on NCI/ADR-RES ovarian, in the assay on HOP-92 NSCLC, with HT29 colon, with OVCAR-4 ovarian, in the assay on SNB-19 CNS and in the assay with NCI-H226 lung was above 100 µM each time. Moreover, the GI50 in the assay with A498 renal, with SK-MEL-2 melanoma and with 786-0 renal was above 100 µM throughout. In addition, the concentration for total growth inhibition (TGI) in the assay with NCI/ADR-RES ovarian, with HOP-92 NSCLC, in the assay on HT29 colon, with OVCAR-4 ovarian, in the assay on SNB-19 CNS and in the assay with NCI-H226 lung was above 100 µM each time. Further, the TGI with A498 renal, in the assay on SK-MEL-2 melanoma and in the assay with 786-0 renal was above 100 µM throughout.
In the case of `Clc1ccc(CNc2nccc(-c3cnn4ncccc34)n2)cc1`, the GI50 in the assay with NCI/ADR-RES ovarian is 6.75 µM; with HT29 colon it was 6.46 µM; with OVCAR-4 ovarian, 7.47 µM; in the assay on SNB-19 CNS, 9.73 µM; in the assay on NCI-H226 lung it was 7.79 µM; in the assay with A498 renal it was 5.07 µM. Further, the GI50 with SK-MEL-2 melanoma is 5.25 µM; with UACC-257 melanoma it was 6.43 µM; in the assay on 786-0 renal, 9.19 µM. Also, the TGI with NCI/ADR-RES ovarian is above 25 µM; with HT29 colon it was 21.1 µM; in the assay on OVCAR-4 ovarian, above 25 µM; in the assay on SNB-19 CNS it was above 25 µM; with NCI-H226 lung, above 25 µM; in the assay with A498 renal it was 10.4 µM. The TGI in the assay on SK-MEL-2 melanoma was determined as 11.5 µM; in the assay on UACC-257 melanoma, 16.5 µM; in the assay on 786-0 renal, 24.4 µM.
Turning to `O=c1cccccc1[O-].O=c1cccccc1[O-].O=c1cccccc1[O-].[Ce+3]`, the TGI in the assay with HOP-92 NSCLC is 89.9 µM; with HT29 colon it was above 100 µM; with OVCAR-4 ovarian, 76.7 µM; in the assay with SNB-19 CNS it was above 100 µM; in the assay on NCI-H226 lung, above 100 µM; with A498 renal, above 100 µM. Moreover, the TGI in the assay with SK-MEL-2 melanoma was 51.6 µM; with UACC-257 melanoma, 96.9 µM; in the assay on 786-0 renal it was 55.2 µM. Besides, the GI50 in the assay on A498 renal is 30.8 µM.
Turning to `COC(=O)[C@H](C)NC(=O)[C@@H](OC)[C@@H]1Cc2cc3cc(OC4CC(OC5CC(O)C(O)C(C)O5)C(O)C(C)O4)c(C)c(O)c3c(O)c2C(=O)[C@H]1OC1CC(OC2CC(OC3CC(C)(O)C(O)C(C)O3)C(O)C(C)O2)C(O)C(C)O1` (stereo partly specified), the GI50 in the assay with NCI/ADR-RES ovarian was 12.3 µM; in the assay with HOP-92 NSCLC, 0.115 µM; in the assay with HT29 colon, 0.117 µM; with OVCAR-4 ovarian it was 0.163 µM; in the assay with SNB-19 CNS it was 0.132 µM; with NCI-H226 lung it was 0.106 µM. The GI50 in the assay with SK-MEL-2 melanoma is 0.0908 µM; with UACC-257 melanoma, 0.052 µM; with 786-0 renal it was 0.148 µM. For the same compound, the TGI in the assay on NCI/ADR-RES ovarian was above 50 µM; in the assay with HOP-92 NSCLC, 7.1 µM; in the assay on HT29 colon it was above 50 µM; in the assay on OVCAR-4 ovarian it was 3.43 µM; in the assay with SNB-19 CNS, above 50 µM; in the assay on NCI-H226 lung it was 0.495 µM. Also, the TGI in the assay on SK-MEL-2 melanoma was 0.588 µM; in the assay with UACC-257 melanoma it was 0.846 µM; in the assay on 786-0 renal, 9.16 µM.
